Tests used:
Type in all cases: biochemical
[1] = target: T1, recombinant human cathepsin S (Homo sapiens, UniProt P25774); test: Cathepsin S enzyme inhibition in vitro (kinetic fluorescence assay); settings: Ki(cathepsin S)/Ki(calpain) ratio
T1 construct: purchased Calbiochem 219343; host or cells: E. coli
Experimental: (§1) Testing for blockade of the corresponding enzymic activities was carried out by means of kinetic fluorescence assays (excitation 390 nm, emission 460 nm).
(§2) Apparent Ki values were calculated from the experimentally determined IC50 values by the Cheng-Prussoff relation assuming a reversible competitive enzyme inhibition. The Km values of the substrates used under the assay conditions indicated above were: 90 μM (Z-Phe-Arg-AMC, cathepsin B), 10 μM (Z-Gly-Pro-Arg-AMC, cathepsin K), 2 μM (Z-Phe-Arg-AMC, cathepsin L), and 30 μM (Z-Val-Val-Arg-AMC, cathepsin S).
(§3) The indicated Ki values are averages of the inhibition constants calculated on the basis of 2 to 4 independent dose-effect plots.
(§4) • 20 nM calpain-I—isolated from human erythrocytes (Calbiochem #208713), 100 μM Suc-Leu-Tyr-AMC (Bachem #I-1355) as substrate in buffer with 62 mM imidazole, 0.3 mM CaCl2, 0.10% CHAPS, 0.05% BSA, 1 mM DTT at pH 7.3 and room temperature. 1. Cathepsin B: • 0.25 nM cathepsin B—isolated from human liver (Calbiochem #219362), 100 μM Z-Phe-Arg-AMC (Bachem #I-1160) as substrate 50 mM MES, 2 mM EDTA, 0.05% Brij 35, 2.5 mM L-cysteine, pH 6.0, room temperature. 3. Cathepsin K: • 3 nM cathepsin K activated from recombinant human procathepsin K from E. coli (Calbiochem #342001), 10 μM Z-Gly-Pro-Arg-AMC (Biomol #P-142) as substrate in 50 mM MES, 2 mM EDTA, 0.05% Brij 35, 2.5 mM L-cysteine, pH 6.0, room temperature. 4. Cathepsin L: • 1 nM cathepsin L—isolated from human liver (Calbiochem #219402), 2 μM Z-Phe-Arg-AMC (Bachem #I-1160) as substrate in 50 mM MES, 2 mM EDTA, 0.05% Brij 35, 2.5 mM L-cysteine, pH 6.0, room temperature. 5. Cathepsin S: • 0.5 nM recombinant human cathepsin S from E. coli (Calbiochem #219343), 20 μM Z-Val-Val-Arg-AMC (Bachem #I-1540) as substrate in 50 mM MES, 2 mM EDTA, 0.05% Brij 35, 2.5 mM L-cysteine, pH 6.0, room temperature.

[2] = target: T2, cathepsin B isolated from human liver (Homo sapiens, UniProt P07858); test: Cathepsin B enzyme inhibition in vitro (kinetic fluorescence assay); settings: Ki(cathepsin B)/Ki(calpain) ratio
T2 construct: cathepsin B—isolated from human liver; purchased Calbiochem 219362; host or cells: human liver (tissue-derived)
Experimental: as §1, §2, §3, §4

[3] = target: T3, cathepsin K activated from recombinant human procathepsin K (Homo sapiens, UniProt P43235); test: Cathepsin K enzyme inhibition in vitro (kinetic fluorescence assay); settings: Ki(cathepsin K)/Ki(calpain) ratio
T3 construct: purchased Calbiochem 342001; host or cells: E. coli
T3 sequence (P43235 115-329): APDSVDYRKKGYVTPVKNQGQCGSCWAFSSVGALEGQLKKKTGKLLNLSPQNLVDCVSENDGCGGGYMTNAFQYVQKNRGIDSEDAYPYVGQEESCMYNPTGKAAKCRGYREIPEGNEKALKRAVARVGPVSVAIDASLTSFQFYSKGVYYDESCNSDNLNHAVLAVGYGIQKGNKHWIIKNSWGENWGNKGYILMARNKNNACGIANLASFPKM
Experimental: as §1, §2, §3, §4

[4] = target: T4, cathepsin L isolated from human liver (Homo sapiens, UniProt P07711); test: Cathepsin L enzyme inhibition in vitro (kinetic fluorescence assay); settings: Ki(cathepsin L)/Ki(calpain) ratio
T4 construct: cathepsin L—isolated from human liver; purchased Calbiochem 219402; host or cells: human liver (tissue-derived)
T4 sequence (P07711 114-333): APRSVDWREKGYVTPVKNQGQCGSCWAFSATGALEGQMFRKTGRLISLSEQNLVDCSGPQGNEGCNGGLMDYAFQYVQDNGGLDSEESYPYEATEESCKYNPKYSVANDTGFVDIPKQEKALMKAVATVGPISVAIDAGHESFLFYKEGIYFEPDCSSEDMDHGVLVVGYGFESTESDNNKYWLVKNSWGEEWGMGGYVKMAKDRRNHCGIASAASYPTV
Experimental: as §1, §2, §3, §4

[5] = target: T5, calpain-I isolated from human erythrocytes (Homo sapiens, UniProt P07384); test: Calpain I enzyme inhibition in vitro (kinetic fluorescence assay); settings: apparent Ki from IC50 (Cheng-Prussoff); 20 nM calpain-I, 100 μM Suc-Leu-Tyr-AMC, pH 7.3, room temperature
T5 construct: calpain-I—isolated from human erythrocytes; purchased Calbiochem 208713; host or cells: human erythrocytes (tissue-derived)
T5 sequence (P07384 1-714): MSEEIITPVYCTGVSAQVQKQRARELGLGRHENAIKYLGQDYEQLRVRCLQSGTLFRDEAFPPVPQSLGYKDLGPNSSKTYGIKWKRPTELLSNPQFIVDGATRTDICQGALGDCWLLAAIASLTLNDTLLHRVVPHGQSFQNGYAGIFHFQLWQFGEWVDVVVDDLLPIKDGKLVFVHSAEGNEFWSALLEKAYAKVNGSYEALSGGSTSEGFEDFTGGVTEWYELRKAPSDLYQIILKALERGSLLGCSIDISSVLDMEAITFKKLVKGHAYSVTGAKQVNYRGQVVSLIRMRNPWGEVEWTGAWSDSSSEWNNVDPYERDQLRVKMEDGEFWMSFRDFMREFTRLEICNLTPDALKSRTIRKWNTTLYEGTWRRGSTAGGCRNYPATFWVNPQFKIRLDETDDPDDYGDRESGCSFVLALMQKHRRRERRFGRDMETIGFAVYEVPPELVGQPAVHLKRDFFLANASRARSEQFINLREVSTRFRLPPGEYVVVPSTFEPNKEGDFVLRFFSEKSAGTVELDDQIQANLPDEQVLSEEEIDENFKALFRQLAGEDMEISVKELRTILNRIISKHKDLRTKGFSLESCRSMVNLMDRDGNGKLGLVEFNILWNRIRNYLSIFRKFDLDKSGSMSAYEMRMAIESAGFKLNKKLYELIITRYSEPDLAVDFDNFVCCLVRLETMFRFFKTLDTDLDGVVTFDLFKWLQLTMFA
T5 sequence (P04632 1-268 partner): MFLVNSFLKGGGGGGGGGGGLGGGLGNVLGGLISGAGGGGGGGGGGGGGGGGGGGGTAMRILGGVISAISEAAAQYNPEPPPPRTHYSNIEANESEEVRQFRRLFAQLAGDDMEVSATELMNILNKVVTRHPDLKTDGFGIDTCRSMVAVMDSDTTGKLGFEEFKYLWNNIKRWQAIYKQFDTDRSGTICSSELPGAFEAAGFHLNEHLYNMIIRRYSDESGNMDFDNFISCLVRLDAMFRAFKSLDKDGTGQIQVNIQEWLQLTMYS
Experimental: as §1, §2, §3, §4

T1 sequence (P25774 115-331): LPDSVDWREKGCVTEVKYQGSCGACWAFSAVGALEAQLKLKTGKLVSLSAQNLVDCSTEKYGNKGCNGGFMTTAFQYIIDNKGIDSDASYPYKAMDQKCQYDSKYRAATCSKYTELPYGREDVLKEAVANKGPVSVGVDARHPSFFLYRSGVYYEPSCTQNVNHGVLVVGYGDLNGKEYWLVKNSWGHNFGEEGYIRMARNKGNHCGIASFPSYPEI

Row | SMILES | Sel cat. S [1] | Sel cat. B [2] | Sel cat. K [3] | Sel cat. L [4] | Ki [5]
1 | NC(=O)C(=O)C(Cc1ccccc1)NC(=O)[C@H]1CCC(=O)N1Cc1ccccc1 (mixture of isomers) [Example 1, (2R)—N-(4-Amino-3,4-dioxo-1-phenylbutan-2-yl)-1-benzyl-5-oxopyrrolidine-2-carboxamide] | +++ (Ki(cathepsin S)/Ki(calpain) ratio of >100) | ++ (10<Ki(cathepsin B)/Ki(calpain)≦30) | ++ (10<Ki(cathepsin B)/Ki(calpain)≦30) | ++ (10<Ki(cathepsin B)/Ki(calpain)≦30) | < 50 nM
2 | CCCNC(=O)C(=O)C(Cc1ccccc1)NC(=O)[C@H]1CCC(=O)N1Cc1ccccc1 (mixture of isomers) [Example 26, (2R)-1-Benzyl-N-(3,4-dioxo-1-phenyl-4-(propylamino)butan-2-yl)-5-oxopyrrolidine-2-carboxamide] | – | +++ (Ki(cathepsin B)/Ki(calpain) ratio of >30) | +++ (Ki(cathepsin K)/Ki(calpain) ratio of >30) | ++ (10<Ki(cathepsin B)/Ki(calpain)≦30) | 100 to 600 nM
3 | O=C(NC1CC1)C(=O)C(Cc1ccccc1)NC(=O)[C@H]1CCC(=O)N1Cc1ccccc1Cl (mixture of isomers) [Example 46, (2R)-1-(2-Chlorobenzyl)-N-(4-(cyclopropylamino)-3,4-dioxo-1-phenylbutan-2-yl)-5-oxopyrrolidine-2-carboxamide] | +++ (Ki(cathepsin S)/Ki(calpain) ratio of >100) | ++ (10<Ki(cathepsin B)/Ki(calpain)≦30) | +++ (Ki(cathepsin K)/Ki(calpain) ratio of >30) | +++ (Ki(cathepsin L)/Ki(calpain) ratio of >30) | 50 to 100 nM
4 | CCNC(=O)C(=O)C(Cc1ccccc1)NC(=O)[C@H]1CCC(=O)N1Cc1ccccc1Cl (mixture of isomers) [Example 47, (2R)-1-(2-Chlorobenzyl)-N-(4-(ethylamino)-3,4-dioxo-1-phenylbutan-2-yl)-5-oxopyrrolidine-2-carboxamide] | ++ (30<Ki(cathepsin B)/Ki(calpain)≦100) | +++ (Ki(cathepsin B)/Ki(calpain) ratio of >30) | +++ (Ki(cathepsin K)/Ki(calpain) ratio of >30) | +++ (Ki(cathepsin L)/Ki(calpain) ratio of >30) | 100 to 600 nM
5 | O=C(NCc1nccs1)C(=O)C(Cc1ccccc1)NC(=O)[C@H]1CCC(=O)N1Cc1ccccc1 (mixture of isomers) [Example 59, (2R)-1-Benzyl-N-(3,4-dioxo-1-phenyl-4-(thiazol-2-ylmethylamino)butan-2-yl)-5-oxopyrrolidine-2-carboxamide] | +++ (Ki(cathepsin S)/Ki(calpain) ratio of >100) | +++ (Ki(cathepsin B)/Ki(calpain) ratio of >30) | +++ (Ki(cathepsin K)/Ki(calpain) ratio of >30) | ++ (10<Ki(cathepsin B)/Ki(calpain)≦30) | 100 to 600 nM
6 | O=C(NCc1cccs1)C(=O)C(Cc1ccccc1)NC(=O)[C@H]1CCC(=O)N1Cc1ccccc1 (mixture of isomers) [Example 60, (2R)-1-Benzyl-N-(3,4-dioxo-1-phenyl-4-(thiophen-2-ylmethylamino)butan-2-yl)-5-oxopyrrolidine-2-carboxamide] | +++ (Ki(cathepsin S)/Ki(calpain) ratio of >100) | +++ (Ki(cathepsin B)/Ki(calpain) ratio of >30) | +++ (Ki(cathepsin K)/Ki(calpain) ratio of >30) | ++ (10<Ki(cathepsin B)/Ki(calpain)≦30) | 50 to 100 nM
7 | O=C(NC1CC1)C(=O)C(Cc1ccccc1)NC(=O)[C@H]1CCC(=O)N1Cc1c(Cl)cccc1Cl (mixture of isomers) [Example 61, (2R)—N-(4-(Cyclopropylamino)-3,4-dioxo-1-phenylbutan-2-yl)-1-(2,6-dichlorobenzyl)-5-oxopyrrolidine-2-carboxamide] | +++ (Ki(cathepsin S)/Ki(calpain) ratio of >100) | + (5<Ki(cathepsin B)/Ki(calpain)≦10) | +++ (Ki(cathepsin K)/Ki(calpain) ratio of >30) | +++ (Ki(cathepsin L)/Ki(calpain) ratio of >30) | 100 to 600 nM
8 | NC(=O)C(=O)C(Cc1ccccc1)NC(=O)[C@H]1CCC(=O)N1Cc1ccccc1OC(F)(F)F (stereo partly drawn) [Example 9, (2R)—N-(4-Amino-3,4-dioxo-1-phenylbutan-2-yl)-5-oxo-1-[2-(trifluoromethoxy)-benzyl]pyrrolidine-2-carboxamide] | +++ (Ki(cathepsin S)/Ki(calpain) ratio of >100) | – | +++ (Ki(cathepsin K)/Ki(calpain) ratio of >30) | +++ (Ki(cathepsin L)/Ki(calpain) ratio of >30) | 50 to 100 nM
9 | NC(=O)C(=O)C(Cc1ccccc1)NC(=O)[C@H]1CCCC(=O)N1Cc1ccccc1 (stereo partly drawn) [Example 14, (2R)—N-(4-Amino-3,4-dioxo-1-phenylbutan-2-yl)-1-benzyl-6-oxopiperidine-2-carboxamide] | ++ (30<Ki(cathepsin B)/Ki(calpain)≦100) | ++ (10<Ki(cathepsin B)/Ki(calpain)≦30) | – | ++ (10<Ki(cathepsin B)/Ki(calpain)≦30) | 50 to 100 nM
10 | NC(=O)C(=O)C(Cc1ccccc1)NC(=O)[C@H]1CCC(=O)N1c1ccccc1 (stereo partly drawn) [Example 15, (2R)—N-(4-Amino-3,4-dioxo-1-phenylbutan-2-yl)-5-oxo-1-phenylpyrrolidine-2-carboxamide] | + (10<Ki(cathepsin S)/Ki(calpain)≦30) | ++ (10<Ki(cathepsin B)/Ki(calpain)≦30) | + (5<Ki(cathepsin K)/Ki(calpain)≦10) | + (5<Ki(cathepsin L)/Ki(calpain)≦10) | –
